These results are taken from patent publication US4668677A, “4-phenylphthalazine derivatives, their preparation and their use as pharmaceuticals” (Mitsubishi Chemical Industries Limited, priority 1984, dated 1987).

The subject of test [1] is blood platelets. Kind of test: Activity to inhibit the aggregation of blood platelets (collagen, ex vivo after oral administration). The class given is in vivo, rat (male Wistar-ST strain). The settings on record: Rattus norvegicus, Platelet, po, read-out: Inhibitory rate of blood platelet aggregation. The protocol: Male Wistar-ST strain rats of an average body weight of 250 g were used, a group consisting of 8 animals. The test compound indicated in the following Table 1 was orally administered to rats in the form of a suspension in a 1% tragacanth aqueous solution at 4 ml/Kg (the test compound 10 mg/Kg).
One hour after the administration, blood samples were obtained from the carotid artery by means of a cannule. […] Tubes were turned upside-down and then subjected to centrifugation at 200×g over 15 minutes to assign the supernatant as a platelet-rich plasma (PRP). The residue was further centrifuged at […] over 15 minutes to assign the supernatant as a platelet-poor plasma (PPP). These supernatants were applied for determining the ability to aggregate blood platelets. […] As an aggregation inducing agent, collagen (availale from Hormon-chemie A.G.) was used at a concentration of 7 to 10 μg/ml.
Inhibitory rate to aggregate blood platelets was calculated according to the following equation: [formula] A: […] in the group to which the 1% tragacanth solution alone was given (Control)
B: Aggregation rate in the group to which the tragacanth solution of the test compound was given.

Test [2] deals with PGI2-like substance in vessel walls. Description: Influence on production of PGI2-like substance in vessel walls (ADP aggregation with carotid artery ring). It is filed as in vivo, rat (male Wistar-ST strain). The settings on record: for Aggregation rate with ADP when carotid artery ring added: 1 hour, 10 μM ADP. As for the experimental part: Male Wistar-ST strain rats with an average weight of about 250 g were used as experimental animals. After fasted for 18 hours, 6.3 ml of blood sample were obtained from corotid artery and immediately thereafter 0.7 ml of an anticoagulant (3.8% sodium citrate) was added and the sample was centrifuged at 200×g over 15 minutes to take platelet-rich plasma (PRP). The same procedures as above were carried out, using 5 to 6 rats, whereby 5-6 ml as normal PRP were stored and employed.
Reference aggregation values were determined by pouring 1 ml each of stored PRP into plastic test tubes, incubating them at 22° C. for 10 minutes and then determining aggregation rate. As an aggregation inducing agent, one employed 10 μM ADP (available from Sigma Co., Inc.)
A suspension of the compound of this invention or aspirin in a 1% aqueous solution of tragacanth was orally given to animals. After 1 hour, 5 mg of carotid artery were cut out in a ring shape and placed into a plastic test tube together with 1 ml of stored PRP. After incubated at 22° C. for 10 minutes, aggregation rate was determined.
Also, non-medicated groups were similarly treated and aggregation rate was determined.
Determination of blood platelet aggregation rate was made by means of an aggregometer.

Test [3] deals with blood platelets. Description: Activity to inhibit the blood platelet adhesion (glass bead method). The class given is cell-based, rat (male Wistar-ST strain). The settings on record: Rattus norvegicus, read-out: Inhibitory rate of blood platelet adhesion. The protocol: As experimental animals, there were used male Wistar-ST strain rats of an average body weight of 250 g.
Blood samples were obained from carotid arteries by means of a cannule and immediately admixed with sodium citrate at a volume ratio of 1/10. The mixture was centrifuged at 200×g over 15 minutes to collect the supernatant (platelet-rich plasma: PRP). The PRP was then centrifuged at 2000×g over 15 minutes and the supernatant was removed to give blood platelet pellet.
To the resultant blood platelet pellet was added a 15 mM tris.HCl buffer solution with EDTA (pH 7.4) to resuspend blood platelets therein and then one applied centrifugation at 2000×g over 15 minutes and the supernatant was removed. The resultant washed blood platelets were added to a 0.3 mM tris.HCl buffer solution with CaCl2 (pH 7.4) to resuspend blood platelets therein, whereby there was prepared a blood platelet suspension adjusted to five hundred thousand platelets/μl. To 2 ml of the blood platelet suspension were added 2 μl of a methanolic solution of each test compound and incubation was effected for 15 minutes. Then blood platelet adhesion was determined according to a glass bead method by using a timing blood suction apparatus for determining the blood platelet adhesion.
The number of blood platelets was counted by means of a blood platelet counter.
Inhibitory rate of blood platelet adhesion was calculated according to the following equation: [formula] A: Blood platelet number in the blood platelet suspension passed through a control column
B: Blood platelet number in the blood platelet suspension passed through a bead-packing column

For test [4], the system named is blood platelet. The settings on record: Drugs, 18, 439 (1979); cited from earlier work.
The subject of test [5] is blood flow. The following applies: Prostaglandins, 25, 549 (1983); cited from earlier work.
Test [6] relates to mice. Description: Anti-thrombotic activity: arachidonic acid-induced mortality in mice. The settings on record: for Survival time of dead mice: arachidonic acid 100 mg/Kg i.v.; for Mortality: arachidonic acid 100 mg/Kg i.v. after 1 hour. The class given is in vivo, mouse (male ICR-JCL strain). The protocol:
Male ICR-JCL strain mice with an average body weight of about 25 g and male New Zealand White rabbits with an average body weight of about 3 Kg were used.
Where mice were used as experimental animals, a suspension of the test compound indicated in Table 3 in a 1% tragacanth aqueous solution was orally administered to animals at 20 ml/Kg. One hour after the administration, an arachidonic acid (PL-biochemical Co., Inc.) solution dissolved in a 0.1M sodium carbonate aqueous solution was intravenously given at 100 mg/Kg. Evaluation of activity was effected with the time from the administration of arachidonic acid up to the death of animals as well as mortality.

Test [7] concerns brain. The settings on record: Am. J. Physiol., 243, H416 (1982); cited from earlier work.

On to `CC(=O)Oc1ccccc1C(=O)O` [Aspirin, aspirin], for which, in test [1], the inhibition at 30 mg/kg was 67.5% and the inhibition at 100 mg/kg worked out at 100%. Further, in test [2] (30 mg/Kg oral), the “Aggregation rate with ADP when carotid artery ring added” value is listed as 45.7%. Besides, in test [2] (100 mg/Kg oral), the “Aggregation rate with ADP when carotid artery ring added” value was 58.3%. Also, the “inhibition of ADP aggregation with PGI2-like substances existing in carotid artery ring (in words)” value in test [2] (from Table 5) was “said phenomena could not be observed”. Moreover, the inhibition at 300 µM in test [3] (3·10^-4 M) is 4%. In test [3] (3·10^-5 M), the inhibition at 30 µM is 5.3%. In addition, in test [3] (3·10^-6 M), the inhibition at 3 µM was 8.4%. In addition, in test [3] (3·10^-7 M), the inhibition at 0.3 µM came out at 3.5%. Besides, the “activity to inhibit blood platelet aggregation (in words)” value in test [4] is given as “show the activity to inhibit blood platelet aggregation”. For the same compound, the “activity to increase blood flow (in words)” value in test [5] is recorded as “does not show at all the activity to increase blood flow”. In test [6] (100 mg/Kg oral), the “Survival time of dead mice” value came to 322 ± 103 s and the Mortality is recorded as 100%. In test [6] (300 mg/Kg oral), the “Survival time of dead mice” value stood at 180 ± 67 s and the Mortality was determined as 37.5%.

Consider `COc1ccc2c(c1)c(CC(=O)O)c(C)n2C(=O)c1ccc(Cl)cc1` [indomethacin], for which the “activity to inhibit blood platelet aggregation (in words)” value in test [4] is reported as “show the activity to inhibit blood platelet aggregation”. Further, in test [7], the “topical blood flow in brain (in words)” value was “did decrease a topical blood flow in brain”. Further, the “activity to increase blood flow (in words)” value in test [5] is on record as “does not show at all the activity to increase blood flow”.
